From ChEMBL document CHEMBL1201862, “PubChem BioAssay data set” (2004)
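These data come from cells grown in 96-well plates and exposed to compound for 48 hours at five concentrations. GI50 marks 50% less growth.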 The source made the active and inactive calls. No stated cut-off is given here; in the data, active = GI50 up to about 1.1 µM and inactive = higher. Residues, ends and D or L forms follow the SMILES beside them. *: point of attachment. Boc = CC(C)(C)OC(=O)*; OBn = c1ccc(CO*)cc1; Bn = c1ccc(C*)cc1

What was measured:
Test in all cases: NCI anticancer screen, dose series, 48 h
SN12C = tested on: SN12C
U-251 = tested on: U-251
SNB-19 = tested on: SNB-19
HCT-15 = tested on: HCT-15
EKVX = tested on: EKVX
OVCAR-8 = tested on: OVCAR-8
KM12 = tested on: KM12
RXF 393 = tested on: RXF 393
OVCAR-5 = tested on: OVCAR-5
NCI-H226 = tested on: NCI-H226
DU-145 = tested on: DU-145
MDA-MB-231 = tested on: MDA-MB-231
PC-3 = tested on: PC-3
COLO 205 = tested on: COLO 205
TK-10 = tested on: TK-10
CCRF-CEM = tested on: CCRF-CEM
NCI-H23 = tested on: NCI-H23
MCF7 = tested on: MCF7
NCI/ADR-RES = tested on: NCI/ADR-RES

## O=C(Nc1nc2ncn(CC(COc3ccccc3)OC(=O)c3ccccc3)c2c(=O)[nH]1)c1ccccc1 (centres undefined)
SN12C
  GI50: > 100 µM (inactive)
U-251
  GI50: > 100 µM (inactive)
SNB-19
  GI50: > 100 µM (inactive)
HCT-15
  GI50: > 100 µM
EKVX
  GI50: > 100 µM (inactive)
OVCAR-8
  GI50: > 100 µM (inactive)
KM12
  GI50: > 100 µM (inactive)
RXF 393
  GI50: > 100 µM (inactive)
OVCAR-5
  GI50: > 100 µM (inactive)
NCI-H226
  GI50: > 100 µM (inactive)

## O=c1oc2c(Cl)cc(Cl)cc2cc1C1=CSC2=NCCN12
DU-145
  GI50: 40.1 µM (inactive)
MDA-MB-231
  GI50: 28.9 µM (inactive)
PC-3
  GI50: 42.1 µM (inactive)
SN12C
  GI50: 51.8 µM (inactive)
U-251
  GI50: 44.7 µM (inactive)
COLO 205
  GI50: > 100 µM (inactive)
SNB-19
  GI50: 44.8 µM (inactive)
HCT-15
  GI50: 44.7 µM
EKVX
  GI50: 41.9 µM (inactive)
OVCAR-8
  GI50: 63.7 µM (inactive)
KM12
  GI50: 57.8 µM (inactive)
RXF 393
  GI50: 34.2 µM (inactive)
OVCAR-5
  GI50: > 100 µM (inactive)
TK-10
  GI50: 73.1 µM (inactive)
CCRF-CEM
  GI50: 31.3 µM (inactive)
NCI-H23
  GI50: 46 µM (inactive)
MCF7
  GI50: 28.8 µM (inactive)
NCI/ADR-RES
  GI50: 79.6 µM (inactive)

## CN(CCN(C)C(=O)CCn1ccc(=O)[nH]c1=O)C(=O)CCn1ccc(=O)[nH]c1=O
SN12C
  GI50: > 100 µM (inactive)
U-251
  GI50: > 100 µM (inactive)
COLO 205
  GI50: > 100 µM (inactive)
SNB-19
  GI50: > 100 µM (inactive)
HCT-15
  GI50: > 100 µM
EKVX
  GI50: > 100 µM (inactive)
OVCAR-8
  GI50: > 100 µM (inactive)
KM12
  GI50: > 100 µM (inactive)
RXF 393
  GI50: > 100 µM (inactive)
OVCAR-5
  GI50: > 100 µM (inactive)
TK-10
  GI50: > 100 µM (inactive)
CCRF-CEM
  GI50: > 100 µM (inactive)
NCI-H226
  GI50: > 100 µM (inactive)
NCI-H23
  GI50: > 100 µM (inactive)

## CCOc1cc(/C=N/c2ccc(Oc3ccc(Cl)cc3)c(Cl)c2)ccc1O
DU-145
  GI50: 50.5 µM (inactive)
MDA-MB-231
  GI50: 19.6 µM (inactive)
PC-3
  GI50: 31.8 µM (inactive)
SN12C
  GI50: 20.8 µM (inactive)
U-251
  GI50: 21.7 µM (inactive)
COLO 205
  GI50: 17.5 µM (inactive)
SNB-19
  GI50: 25.2 µM (inactive)
HCT-15
  GI50: 22.5 µM
EKVX
  GI50: 18.5 µM (inactive)
OVCAR-8
  GI50: 23 µM (inactive)
KM12
  GI50: 18.2 µM (inactive)
OVCAR-5
  GI50: 28.1 µM (inactive)
TK-10
  GI50: 43.1 µM (inactive)
CCRF-CEM
  GI50: 16.1 µM (inactive)
NCI-H226
  GI50: 26.9 µM (inactive)
NCI-H23
  GI50: 22.7 µM (inactive)
MCF7
  GI50: 31.9 µM (inactive)
NCI/ADR-RES
  GI50: 21.8 µM (inactive)

## N#CC(c1nc2ccccc2s1)c1ncnc(Cl)c1[N+](=O)[O-] (centres undefined)
DU-145
  GI50: 34.1 µM (inactive)
MDA-MB-231
  GI50: 30.8 µM (inactive)
SN12C
  GI50: 18.2 µM (inactive)
U-251
  GI50: 32.7 µM (inactive)
COLO 205
  GI50: 15.5 µM (inactive)
SNB-19
  GI50: 32.1 µM (inactive)
HCT-15
  GI50: 17.9 µM
EKVX
  GI50: 23.2 µM (inactive)
OVCAR-8
  GI50: 18.5 µM (inactive)
KM12
  GI50: 32.5 µM (inactive)
RXF 393
  GI50: 25.5 µM (inactive)
OVCAR-5
  GI50: 24.3 µM (inactive)
TK-10
  GI50: 34.3 µM (inactive)
CCRF-CEM
  GI50: 0.361 µM (active)
NCI-H226
  GI50: 20.2 µM (inactive)
NCI-H23
  GI50: 16.5 µM (inactive)
NCI/ADR-RES
  GI50: 17.8 µM (inactive)

## O=C1CC(O)c2c(Br)sc(Br)c21 (centres undefined)
DU-145
  GI50: 10.4 µM (inactive)
MDA-MB-231
  GI50: 15.2 µM (inactive)
PC-3
  GI50: 13 µM (inactive)
SN12C
  GI50: 17.5 µM (inactive)
U-251
  GI50: 4.54 µM (inactive)
COLO 205
  GI50: 13.2 µM (inactive)
SNB-19
  GI50: 18.6 µM (inactive)
HCT-15
  GI50: 11.3 µM
EKVX
  GI50: 10.4 µM (inactive)
OVCAR-8
  GI50: 5.01 µM (inactive)
KM12
  GI50: 7.48 µM (inactive)
RXF 393
  GI50: 2.5 µM (inactive)
OVCAR-5
  GI50: 21.3 µM (inactive)
TK-10
  GI50: 3.54 µM (inactive)
CCRF-CEM
  GI50: 0.728 µM (active)
NCI-H23
  GI50: 22.7 µM (inactive)
MCF7
  GI50: 3.46 µM (inactive)
NCI/ADR-RES
  GI50: 30.3 µM (inactive)

## COc1cc(-c2c3c(cc4c2OCO4)[C@@H](Nc2ccc4c(c2)Cc2cc(N[C@@H]5c6cc7c(cc6C(c6cc(OC)c(O)c(OC)c6)[C@H]6C(=O)OC[C@H]56)OCO7)ccc2-4)[C@H]2COC(=O)[C@@H]2C3)cc(OC)c1O (some centres undefined)
DU-145
  GI50: 26.3 µM (inactive)
MDA-MB-231
  GI50: 21 µM (inactive)
PC-3
  GI50: 10.9 µM (inactive)
SN12C
  GI50: > 100 µM (inactive)
U-251
  GI50: 26.7 µM (inactive)
COLO 205
  GI50: 15.3 µM (inactive)
SNB-19
  GI50: 36 µM (inactive)
HCT-15
  GI50: 43.8 µM
EKVX
  GI50: 74.6 µM (inactive)
OVCAR-8
  GI50: 40.6 µM (inactive)
KM12
  GI50: 26.5 µM (inactive)
OVCAR-5
  GI50: 27.8 µM (inactive)
TK-10
  GI50: 31 µM (inactive)
CCRF-CEM
  GI50: > 100 µM (inactive)
NCI-H226
  GI50: 43.5 µM (inactive)
NCI-H23
  GI50: 76.4 µM (inactive)
MCF7
  GI50: 27.9 µM (inactive)
NCI/ADR-RES
  GI50: 15.2 µM (inactive)

## CC(C)CC(NC(=O)C(Cc1ccccc1)NC(=O)C(COCc1ccccc1)NC(=O)OC(C)(C)C)C(=O)OCc1ccccc1 (stereo not drawn) (Boc-Ser(Bn)-Phe-Leu-OBn; configuration not given here)
DU-145
  GI50: 9.57 µM (inactive)
MDA-MB-231
  GI50: 27.1 µM (inactive)
PC-3
  GI50: 22.3 µM (inactive)
SN12C
  GI50: 25.8 µM (inactive)
U-251
  GI50: 22.3 µM (inactive)
COLO 205
  GI50: 17.5 µM (inactive)
SNB-19
  GI50: > 100 µM (inactive)
HCT-15
  GI50: 16.3 µM
EKVX
  GI50: 24.8 µM (inactive)
OVCAR-8
  GI50: 18.7 µM (inactive)
OVCAR-5
  GI50: 39.4 µM (inactive)
TK-10
  GI50: 34 µM (inactive)
CCRF-CEM
  GI50: 26.2 µM (inactive)
NCI-H23
  GI50: 18.5 µM (inactive)
MCF7
  GI50: 37.9 µM (inactive)
NCI/ADR-RES
  GI50: > 100 µM (inactive)
